Three compounds from US5075304A, “Imidazoquinoxaline compounds and their preparation and use” (Novo Nordisk A/S, priority 1988, dated 1991) can be followed below.

This experiment concerns benzodiazepine receptors. Description: in vivo displacement of 3H-flunitrazepam binding from brain benzodiazepine receptors. Particulars: dose reducing specific 3H-flunitrazepam binding in living mouse brain to 50% of control; test substance intraperitoneally 15 min before 3H-FNM i.v. Also noted: species or system mice. The source says: The pharmaceutical properties of the compounds of the invention can be illustrated by determining their capability for displacing radioactive labelled flunitrazepam from benzodiazepine receptors.
The displacement activity of the compounds of the invention may be found by determining the ED50 value. The ED50 value represents the dose (mg/kg) of a test substance which causes the specific binding of flunitrazepam to benzodiazepine receptors in a living brain to be reduced to 50% of the control value.
Such an in vivo test is carried out as follows:
Principle. Twenty minutes after a dose of ^3 H-flunitrazepam (^3 H-FNM) (200 μCi/kg, i.v.) the amount of specific ^3 H-FNM binding to brain benzodiazepine receptors has reached its maximal value.
Test procedure. Suspensions of test substances (2 mg/ml) are prepared in 5% Duphasol-X (TM Duphar, castor oil-ethylene oxide derivative for emulsifying and solubilizing oil and other water-insoluble substances) by sonification for 10 min using a Branson B15 microtip ultrasonifier (setting 7). Groups of three mice (female, NMR, 18-22 grams) are injected with the test substance at 100 mg/kg intraperitoneally. Fifteen minutes after test substance administration the mice are challenged with 4 μCi intravenously of ^3 H-FNM (70-90 Ci/mole) in 200 μl physiological saline. Twenty minutes after ^3 H-FNM administration mice are sacrificed by decapitation, the forebrains rapidly excised (within 30 sec) and homogenized in 12 ml of icecold 25 mM KH2 PO4, pH 7.1, using an Ultra-Turrax homogenizer fitted with an N 10 shaft. […] The amounts of radioactivity on the filters are determined by conventional scintillation counting. […]
Results. The ED50 value is determined from dose response curves. If only one dose of test substance is administered the ED50 value is calculated as follows, provided that the inhibition of specific binding is within the range of 25-75%: [formula] where Co is specific binding in controls and Cx is specific binding in mice treated with test substance.
For orientation: Displacement assays read how much labelled ligand stays bound in the presence of the test substance.
As to `Cn1c(=O)c2c(-c3noc(C4CC4)n3)ncn2c2cccc(C(F)(F)F)c21` [Compound 2, 3-(5-cyclopropyl-1,2,4-oxadiazol-3-yl)-4,5-dihydro-5-methyl-4-oxo-6-trifluoromethyl-imidazo[1,5-a]quinoxaline], the ED50 stood at 0.09 mg/kg.
The value for `O=c1c2c(-c3noc(C4CC4)n3)ncn2c2ccccc2n1Cc1ccccc1` [Compound 1, 5-benzyl-3-(5-cyclopropyl-1,2,4-oxadiazol-3-yl)-4,5-dihydro-4-oxo-imidazo[1,5-a]quinoxaline] was 1.2 mg/kg; that for `Cn1c(=O)c2c(-c3nc(C4CC4)no3)ncn2c2cccc(C(F)(F)F)c21` [Compound 6, 3-(3-cyclopropyl-1,2,4-oxadiazol-5-yl)-4,5-dihydro-5-methyl-4-oxo-6-trifluoromethylimidazo[1,5-a]quinoxaline] was 0.21 mg/kg.

Usually ED50 stands for the dose that gives a 50% effect, or the effect in half of the subjects.
